Where a name gives a salt, the structure may show the parent alone. Read-outs that look alike come from different tables or passages of the source.
How the values were obtained:
glioma cell line U87 = test: Drug screening, AlamarBlue assay in U87; type: cell-based; conditions: for inhibition at 1 µM: Glioma cell, 144 h, read-out: reduction of the relative metabolic activity of U87
Protocol: (§1) Experiments were performed in triplicates for each sample.
For comparison with our four patient-specific primary GBM cell specimens, we used the commercially available glioma cell line U87 that is frequently investigated in drug discovery settings (FIG. 2).

[1] = tested on: #155 cells (primary cells from a patient with pharmacoresistent epilepsy); test: Drug screening, AlamarBlue assay in #155 control cells; type: cell-based, human; conditions: 1 μM
Protocol: as §1
As an alternative control, primary cells were evaluated, which were obtained from a patient suffering from pharmacoresistent epilepsy (patient #155).

[2] = tested on: four patient-specific primary GBM cultures; conditions: for effect on the primary GBM cells' metabolic activity: 1 μM
Protocol: Before screening, cell number was titrated for each cell line separately to ensure that cell proliferation remained in a linear-exponential phase throughout the experiment. 24 hours after seeding 2−3×10^3 cells/well into laminin/poly-L-ornithine coated 96-well plates, primary cultures were treated with 2 nM, 1 μM or 10 μM of each compound (stock solution 10 mM in DMSO). As a reference we treated cells with 50 μM and 500 μM temozolomide (TMZ, SigmaAldrich, Taufkirchen, Germany; stock solution of 100 mM in DMSO). Control cells were treated with 0.5-0.01% DMSO. Six days after application, cell viability was determined using the AlamarBlue® assay according to the manufacturers recommendations (Invitrogen, Karlsruhe, Germany). Fluorescence was measured using an Infinite200 microplate reader (Tecan, Crailsheim, Germany) at Xex=540 nm and Xem=590 nm. Experiments were performed in triplicates for each sample.
To identify cytotoxic and cytostatic compounds, we conducted in vitro drug-screening assays in four different patient-specific primary GBM cultures (see Table 1 for basic characterization of research specimens).
The compound library was screened at three different concentrations (10 μM, 1 μM, 2 nM). The relative metabolic activity was determined after a 5-day incubation with compounds. […] For reference, we applied 50 μM (reported plasma peak concentration) and 500 μM of temozolomide (TMZ, as described in Beier et al., 2008), the current standard chemotherapeutic GBM drug to our cells. […] However, “hits” in the setting of a primary screening were defined as a reduction of the relative metabolic activity under the level of 50% of DMSO-treated control cells.

[3] = in vivo; cited from earlier work

SMILES | inhibition at 1 µM (glioma cell line U87; 1 μM) [%] | effect on the metabolic activity of the #155 cells [1] | other results
COc1cc([C@@H]2c3cc4c(cc3[C@@H](O[C@@H]3O[C@@H]5CO[C@@H](c6cccs6)O[C@H]5[C@H](O)[C@H]3O)[C@H]3COC(=O)[C@H]23)OCO4)cc(OC)c1O [Teniposide] | ≤ 50 | very little effect | –
CC[C@]1(O)C[C@H]2CN(CCc3c([nH]c4ccccc34)[C@@](C(=O)OC)(c3cc4c(cc3OC)N(C=O)[C@H]3[C@@](O)(C(=O)OC)[C@H](OC(C)=O)[C@]5(CC)C=CCN6CC[C@]43[C@@H]65)C2)C1 [vincristine sulfate] | – | very little effect | –
C=C1[C@@H](C)[C@H]2[C@H](Cc3ccccc3)NC(=O)[C@]23[C@H](OC(C)=O)/C=C/[C@@](C)(O)C(=O)[C@@H](C)C/C=C/[C@H]3[C@@H]1O [cytochalasin D] | – | diminished the metabolic activity of the #155 cells significantly | effect on the primary GBM cells' metabolic activity [2]: no significant effect
O=C1C(Cl)=C(Cl)C(=O)c2c(O)ccc(O)c21 [2,3-dichloro-5,8-dihydroxynapthoquinone] | – | diminished the metabolic activity of the #155 cells significantly | effect on the primary GBM cells' metabolic activity [2]: no significant effect
CC(=O)O[C@H]1C(=O)[C@@]2(C)[C@H]([C@H](OC(=O)c3ccccc3)[C@]3(O)C[C@H](OC(=O)[C@H](O)[C@@H](NC(=O)c4ccccc4)c4ccccc4)C(C)=C1C3(C)C)[C@]1(OC(C)=O)CO[C@@H]1C[C@@H]2O [paclitaxel] | – | very little effect | –
Cn1nnc2c(C(N)=O)ncn2c1=O [TMZ, temozolomide] | – | – | reduction of relative metabolic activity ([2]; 50 μM TMZ, mean of four patient-specific primary cultures): 17%; relative metabolic activity, level ([2]; 500 μM TMZ, mean of four patient-specific primary cultures): 63%; reported plasma peak concentration [3]: 50 µM
C=C(C)[C@H]1Cc2c(ccc3c2O[C@@H]2COc4cc(OC)c(OC)cc4[C@@H]2C3=O)O1 [Rotenone] | – | very little effect | inhibition at 1 µM (glioma cell line U87): ≤ 50%
Nc1nc2nc[nH]c2c(=S)[nH]1 [Thioguanine] | ≤ 50 | very little effect | –
COc1cc(O)c2c(c1)C(=O)c1cc(C)cc(O)c1C2=O [Physicion] | – | – | influence on the U87's metabolic activity (glioma cell line U87; 1 μM): significant influence; effect on the primary GBM cells' metabolic activity [2]: without affecting
CCCCCCCCCCCCCC(=O)O[C@@H]1[C@@H](C)[C@@]2(O)[C@@H](C=C(CO)C[C@]3(O)C(=O)C(C)=C[C@@H]23)[C@@H]2C(C)(C)[C@]12OC(C)=O [phorbol myristate acetate] | – | diminished the metabolic activity of the #155 cells significantly | effect on the primary GBM cells' metabolic activity [2]: no significant effect
N=c1ccn2c(n1)O[C@H]1[C@H](O)[C@@H](CO)O[C@H]12 [Ancitabine hydrochloride] | ≤ 50 | – | –
CC[C@@]1(O)C(=O)OCc2c1cc1n(c2=O)Cc2cc3cc(O)ccc3nc2-1 [10-Hydroxycamptothecin] | – | very little effect | –
O=c1[nH]c(=O)n([C@H]2C[C@H](O)[C@@H](CO)O2)cc1F [Floxuridine] | ≤ 50 | very little effect | –
CC[C@H]1CN2CCc3cc(OC)c(OC)cc3[C@@H]2C[C@@H]1C[C@H]1NCCc2cc(OC)c(OC)cc21 [emetine] | – | very little effect | –
CC[C@@]1(O)C(=O)OCc2c1cc1n(c2=O)Cc2cc3ccccc3nc2-1 [camptothecin] | – | very little effect | –
CN(Cc1cnc2nc(N)nc(N)c2n1)c1ccc(C(=O)N[C@@H](CCC(=O)O)C(=O)O)cc1 [Methotrexate] | ≤ 50 | very little effect | –
C[C@@]12C(=O)OC(=O)[C@]1(C)[C@H]1CC[C@@H]2O1 [Cantharidin] | – | diminished the metabolic activity of the #155 cells significantly | effect on the primary GBM cells' metabolic activity [2]: no significant effect
O=C(Nc1ccc([N+](=O)[O-])cc1Cl)c1cc(Cl)ccc1O [Niclosamide] | ≤ 50 | very little effect | –
COc1cc([C@@H]2c3cc4c(cc3[C@H](O)[C@H]3COC(=O)[C@@H]23)OCO4)cc(OC)c1OC [Picropodophyllotoxin] | – | very little effect | inhibition at 1 µM (glioma cell line U87): ≤ 50%
